Results: PubChem BioAssay (NCI)
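Briefly, cells in 96-well plates were exposed to five compound concentrations for 48 h, and endpoints were estimated by linear interpolation. GI50 is the concentration that inhibits growth by half. At the TGI there is no net growth.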

Assays:
Experiment in all cases: NCI tumour cell line growth inhibition, 48 h
[1] = test system: 786-0 renal
[2] = test system: A549 NSCLC
[3] = test system: ACHN renal
[4] = test system: BT-549 breast
[5] = test system: CCRF-CEM leukemia
[6] = test system: COLO 205 colon
[7] = test system: DU-145 prostate
[8] = test system: EKVX NSCLC
[9] = test system: HCC-2998 colon
[10] = test system: HCT-116 colon
[11] = test system: HCT-15 colon
[12] = test system: HL-60(TB) leukemia
[13] = test system: HOP-62 NSCLC
[14] = test system: HOP-92 NSCLC
[15] = test system: HS 578T breast
[16] = test system: HT29 colon
[17] = test system: IGROV1 ovarian
[18] = test system: K-562 leukemia
[19] = test system: KM12 colon
[20] = test system: LOX IMVI melanoma
[21] = test system: M14 melanoma
[22] = test system: MALME-3M melanoma
[23] = test system: MCF7 breast
[24] = test system: MDA-MB-231 breast
[25] = test system: MDA-MB-435
[26] = test system: MOLT-4 leukemia
[27] = test system: NCI-H226 lung
[28] = test system: NCI-H23 lung
[29] = test system: NCI-H522 lung
[30] = test system: NCI/ADR-RES ovarian
[31] = test system: OVCAR-3 ovarian
[32] = test system: OVCAR-4 ovarian
[33] = test system: OVCAR-5 ovarian
[34] = test system: OVCAR-8 ovarian
[35] = test system: PC-3 prostate
[36] = test system: RPMI-8226 leukemia
[37] = test system: RXF 393 renal
[38] = test system: SF-268 CNS
[39] = test system: SF-295 CNS
[40] = test system: SF-539 CNS
[41] = test system: SK-MEL-2 melanoma
[42] = test system: SK-MEL-28 melanoma
[43] = test system: SK-MEL-5 melanoma
[44] = test system: SK-OV-3 ovarian
[45] = test system: SN12C renal
[46] = test system: SNB-19 CNS
[47] = test system: SNB-75 CNS
[48] = test system: SR leukemia
[49] = test system: SW-620 colon
[50] = test system: T-47D breast
[51] = test system: TK-10 renal
[52] = test system: U251 CNS
[53] = test system: UACC-257 melanoma
[54] = test system: UACC-62 melanoma
[55] = test system: UO-31 renal

Which GI50 [1] does the source give for `Nc1nc2cc(-c3ccc4ncc(C(=O)N5CCOCC5)n4c3)ccc2o1` here?
The GI50 was 14.6 µM.

And the TGI [1]?
Its TGI is greater than 100 µM.

What about the GI50 [2] of the same molecule?
The GI50 was 4.86 µM.

What about the TGI [2] of the same molecule?
The TGI was greater than 100 µM.

What about the GI50 [3] of the same molecule?
Its GI50 is 4.28 µM.

And the TGI [3]?
Its TGI is greater than 100 µM.

What about the GI50 [4] of the same molecule?
Its GI50 is 4.39 µM.

And the TGI [4]?
The TGI was 37.9 µM.

What about the GI50 [5] of the same molecule?
The GI50 was 8.74 µM.

And the TGI [5]?
The TGI was greater than 100 µM.

And the GI50 [6]?
The GI50 was 3.44 µM.

What about the TGI [6] of the same molecule?
The TGI was greater than 100 µM.

What about the GI50 [7] of the same molecule?
The GI50 was 9.09 µM.

And the TGI [7]?
The TGI was greater than 100 µM.

And the GI50 [8]?
Its GI50 is 4.26 µM.

What about the TGI [8] of the same molecule?
Its TGI is greater than 100 µM.

And the GI50 [9]?
The GI50 was 10 µM.

What about the TGI [9] of the same molecule?
The TGI was greater than 100 µM.

And the GI50 [10]?
The GI50 was 4.4 µM.

What about the TGI [10] of the same molecule?
Its TGI is greater than 100 µM.

And the GI50 [11]?
The GI50 was 5.4 µM.

What about the TGI [11] of the same molecule?
Its TGI is greater than 100 µM.

And the GI50 [12]?
The GI50 was 2.95 µM.

What about the TGI [12] of the same molecule?
Its TGI is 60.9 µM.

And the GI50 [13]?
Its GI50 is 4.23 µM.

And the TGI [13]?
Its TGI is 49.3 µM.

And the GI50 [14]?
The GI50 was 1.35 µM.

And the TGI [14]?
Its TGI is 9.53 µM.

And the GI50 [15]?
Its GI50 is 3.36 µM.

What about the TGI [15] of the same molecule?
Its TGI is 30 µM.

What about the GI50 [16] of the same molecule?
The GI50 was 3.52 µM.

What about the TGI [16] of the same molecule?
Its TGI is greater than 100 µM.

And the GI50 [17]?
Its GI50 is 1.74 µM.

What about the TGI [17] of the same molecule?
Its TGI is 6.6 µM.

And the GI50 [18]?
Its GI50 is 47 µM.

What about the TGI [18] of the same molecule?
The TGI was greater than 100 µM.

And the GI50 [19]?
Its GI50 is 14.4 µM.

And the TGI [19]?
Its TGI is greater than 100 µM.

What about the GI50 [20] of the same molecule?
Its GI50 is 4.74 µM.

And the TGI [20]?
The TGI was greater than 100 µM.

What about the GI50 [21] of the same molecule?
Its GI50 is 4.64 µM.

And the TGI [21]?
The TGI was greater than 100 µM.

And the GI50 [22]?
The GI50 was 1.23 µM.

And the TGI [22]?
The TGI was 7.15 µM.

And the GI50 [23]?
The GI50 was 1.39 µM.

And the TGI [23]?
The TGI was greater than 100 µM.

And the GI50 [24]?
The GI50 was 4.89 µM.

And the TGI [24]?
Its TGI is 67.9 µM.

And the GI50 [25]?
Its GI50 is 5.71 µM.

And the TGI [25]?
The TGI was greater than 100 µM.

What about the GI50 [26] of the same molecule?
The GI50 was 4.15 µM.

And the TGI [26]?
The TGI was 74.9 µM.

And the GI50 [27]?
The GI50 was 5.2 µM.

And the TGI [27]?
The TGI was greater than 100 µM.

What about the GI50 [28] of the same molecule?
Its GI50 is 6.58 µM.

And the TGI [28]?
The TGI was greater than 100 µM.

And the GI50 [29]?
Its GI50 is 7.13 µM.

And the TGI [29]?
Its TGI is 88.5 µM.

And the GI50 [30]?
Its GI50 is 44.6 µM.

And the TGI [30]?
The TGI was greater than 100 µM.

And the GI50 [31]?
Its GI50 is 13.9 µM.

And the TGI [31]?
The TGI was greater than 100 µM.

What about the GI50 [32] of the same molecule?
The GI50 was 6.07 µM.

What about the TGI [32] of the same molecule?
The TGI was greater than 100 µM.

And the GI50 [33]?
The GI50 was 2.74 µM.

And the TGI [33]?
Its TGI is greater than 100 µM.

And the GI50 [34]?
Its GI50 is 13.4 µM.

What about the TGI [34] of the same molecule?
Its TGI is greater than 100 µM.

And the GI50 [35]?
Its GI50 is 3.19 µM.

And the TGI [35]?
The TGI was greater than 100 µM.

And the GI50 [36]?
The GI50 was 6.36 µM.

What about the TGI [36] of the same molecule?
Its TGI is greater than 100 µM.

And the GI50 [37]?
Its GI50 is 5.51 µM.

And the TGI [37]?
The TGI was 36.7 µM.

And the GI50 [38]?
The GI50 was 9.82 µM.

And the TGI [38]?
The TGI was greater than 100 µM.

And the GI50 [39]?
The GI50 was 5.53 µM.

What about the TGI [39] of the same molecule?
Its TGI is 64.8 µM.

And the GI50 [40]?
Its GI50 is 9.81 µM.

And the TGI [40]?
The TGI was 73.3 µM.

What about the GI50 [41] of the same molecule?
Its GI50 is 5.33 µM.

And the TGI [41]?
The TGI was 46.8 µM.

What about the GI50 [42] of the same molecule?
The GI50 was 5.4 µM.

And the TGI [42]?
The TGI was greater than 100 µM.

And the GI50 [43]?
The GI50 was 3.95 µM.

And the TGI [43]?
The TGI was 50.7 µM.

And the GI50 [44]?
Its GI50 is 1.59 µM.

And the TGI [44]?
Its TGI is 7.16 µM.

What about the GI50 [45] of the same molecule?
Its GI50 is 6.66 µM.

And the TGI [45]?
The TGI was greater than 100 µM.

What about the GI50 [46] of the same molecule?
The GI50 was 15.4 µM.

What about the TGI [46] of the same molecule?
Its TGI is 84.5 µM.

And the GI50 [47]?
Its GI50 is 0.916 µM.

What about the TGI [47] of the same molecule?
Its TGI is 15.7 µM.

And the GI50 [48]?
Its GI50 is 2.85 µM.

And the TGI [48]?
Its TGI is greater than 100 µM.

What about the GI50 [49] of the same molecule?
The GI50 was 10.8 µM.

What about the TGI [49] of the same molecule?
The TGI was greater than 100 µM.

And the GI50 [50]?
The GI50 was 0.417 µM.

And the TGI [50]?
The TGI was 3.52 µM.

And the GI50 [51]?
Its GI50 is 2.41 µM.

What about the TGI [51] of the same molecule?
The TGI was 27.5 µM.

And the GI50 [52]?
The GI50 was 11.1 µM.

And the TGI [52]?
Its TGI is 80.3 µM.

What about the GI50 [53] of the same molecule?
The GI50 was 7.8 µM.

What about the TGI [53] of the same molecule?
The TGI was greater than 100 µM.

And the GI50 [54]?
The GI50 was 4.14 µM.

What about the TGI [54] of the same molecule?
Its TGI is greater than 100 µM.

What about the GI50 [55] of the same molecule?
The GI50 was 2.09 µM.

What about the TGI [55] of the same molecule?
Its TGI is 35.6 µM.
